The test system of one test is H460 tumor cells. As to the kind of experiment: H460 non-small cell lung tumor xenograft model, tumor volume (Example 1). Type of test: in vivo, mice. As to conditions: gemcitabine alone, 160 mg/kg q3d×3. From the text:
A method of the invention provided an improved antiproliferative effect over co-administration in an art-recognized […] tumor model. In the experiment, gemcitabine was used as the Chk1 activator and a diaryl urea compound according to Keegan et al., PCT/US02/06452, was used as the selective Chk1 inhibitor. (The same Chk1 inhibitor was used in the examples 2-11.) The target phase of gemcitabine is the S phase of the cell cycle. A non-small cell lung tumor xenograft tumor model, H460, was the art-recognized […] tumor model.
Nude mice were engrafted with H460 tumor cells and allowed to grow to an average of 75 mm3. Tumor-bearing mice were then treated with vehicle, gemcitabine or gemcitabine plus 400 mg/kg selective Chk1 inhibitor. The gemcitabine was administered at a dose of 160 mg/kg q3d×3 either simultaneously with the Chk1 inhibitor (co-administration) or, according to the invention, 18 hours prior to the Chk1 inhibitor to allow for S phase synchronization.
Tumors were measured every 2-3 days. On day 10, the median tumor volume for the vehicle group was 10 times the starting volume, while the gemcitabine alone group was four times the starting volume. The tumor volume for the gemcitabine plus Chk1 inhibitor co-administration group was also four times the starting volume. […]

For a further test, the system named is tumor cells. As to the kind of experiment: Cell-based proliferation (sensitization) assay (Example 2). As to conditions: ratio of GI90 of the chemotherapy agent in absence to that in presence of Chk1 inhibitor. As to the method: Chk1 inhibitors were tested in a cell-based proliferation assay for the ability to sensitize tumor cells to ionizing radiation or chemotherapy agents. Chk1 inhibitors were tested in combination with 5-FU, gemicitabine, ionizing radiation, camptothecin, etoposide, hydroxyurea, cisplatin, fludarabine, Ara-C and aphidicolin. For each experiment, a serial dilution of each compound in combination with a ten-point dilution of each chemotherapy agent was included, in order to determine the concentration of chemotherapeutic required to inhibit the growth of 90% (GI90) of the cells in the presence and absence of the Chk1 inhibitor. This ratio of GI90 in the absence of Chk1 inhibitor to that in the presence of Chk1 inhibitor is called the “fold sensitization.” Fold sensitization was plotted as a function of Chk1 inhibitor concentration and the amount of drug required to yield two-fold sensitization was calculated. […] Another parameter analyzed was the fold sensitization achieved at the LD50 (the dose of compound alone that inhibits growth of 50% of cells) for the compound. These two values allow direct ranking of both the potency and toxicity of Chk1 inhibitors with respect to one another.

The next test relates to H460 tumors. As to the kind of experiment: H3-P staining in H460 tumors after gemcitabine. Type of test: in vivo, rodent. How it is done:
(§1) Chem. 271:13197-201. 1996; Goto et al., J Biol Chem. 274:25543-9, 1999). The assay protocol was as follows. Tumors from rodents treated or untreated with Chk1 activator (in the present study, chemotherapy agent) and/or Chk1 inhibitor, were excised and paraffin embedded. The tumors are cut into 6 micron thick slices and mounted on glass slides. […] The slides are then heated to 95° C. in 10 mM sodium citrate for 10 minutes followed by a 20 minute cooling step. The slides are blocked for 30 minutes with Block buffer (20% normal human serum and 2% bovine serum albumin in phosphate buffered saline containing 0.05% Triton X-100 (PBST)). The anti-phospho histone H3 antibody (Upstate Biotech, Cat. #06-570) is diluted 1:200 in the Block buffer and incubated with the slides for one hour. The slides are washed 3 times 5 minutes in PBST. The secondary antibody, donkey anti-rabbit rhodamine (Jackson, cat #711-295-152) was added for 30 minutes. The slides were then washed twice in PBST and […] of […] DAPI (Sigma) in PBS is added and allowed to stain for 30 minutes. The slides were then washed two more times in PBST and mounted with Vectashield (Vector, cat # H-1400). Slides were viewed using fluorescence microscopy. The percentage of cells stained with H3-P antibody relative to total (DAPI stained) cells were quantified using Metamorph software (Universal Imaging Corporation, Version 4.6). […]

For the next test, the system named is 137-62 tumors. As to the kind of experiment: H3-P staining in 137-62 tumors after gemcitabine. Type of test: in vivo, rat. As to the method:
as §1

The structures appear in SMILES notation.

Turning to `Nc1ccn([C@@H]2O[C@H](CO)[C@@H](O)C2(F)F)c(=O)n1` [gemcitabine], in the test on H460 tumor cells, the “median tumor volume on day 10” value is “four”. In addition, the “Fold Sensitization to Agent by Chk1 Inhibitor” value with tumor cells was determined as 12 fold. The “time at which cells exited S phase arrest” value with H460 tumors (H460 cells, after gemcitabine) was 48 h; with 137-62 tumors (137-62 cells, after gemcitabine), 24 h. For the same compound, the “time of lowest H3-P staining” value with H460 tumors (H460 tumors treated with gemcitabine) and with 137-62 tumors (137-62 tumors treated with gemcitabine) was 12 h throughout.

The record behind these values is patent publication US20070185013A1, “Use of chk1 inhibitors to control cell proliferation” (ICOS CORPORATION, priority 2003, published 2007).
